These are literature values, as cited in patent US20250213501A1, “IMPROVING SEMEN QUALITY” (CEUTICS HEALTH GMBH, priority 2022, published 2025).

The conditions of data set [1]: daily intake of 12 mg of spermidine provided in a plant extract (e.g., wheat germ extract).

`NCCCCNCCCN` [spermidine]: the “NOAEL for a 70 kg person” value (70 kg person) is on record as 470 mg/day. Also, the “NOAEL (No Observed Adverse Effect Level)” value (Til et al., Food and Chemical Toxicology 1997) is reported as 83 mg/kg body weight/day. The “safety of daily intake” value in data set [1] is given as “safe”.
